Laboratory results published in US6737383B1, “Herbicidal oxadiazolidines” (priority 1999, dated 2004).

Tests used:
[1] = test system: wild oat; experiment: Test B pre/postemergence wild oat; assay type: in vivo, Avena fatua
Procedure, shortened: (§1)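 Response is a visual 0-to-10 score relative to untreated plants, where 0 means no effect and 10 means complete control, taken twelve to sixteen days after application. Treatments went onto soil at planting and onto foliage of 1- to 4-leaf plants, using a surfactant-containing non-phytotoxic solvent.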

[2] = test system: purple nutsedge; experiment: Test B pre/postemergence purple nutsedge; assay type: in vivo, Cyperus rotundus
Procedure, shortened: as §1

[3] = test system: duck salad; experiment: Test B flood test duck salad; assay type: in vivo, Heteranthera limosa
Procedure, shortened: (§2)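 Read-out is a visual response score from 0 (no effect) to 10 (complete control), assigned by comparison with untreated controls. Treatment was applied at the 2-leaf stage, and plants stayed in the greenhouse for twelve to sixteen days before scoring.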

[4] = test system: sugar beet; experiment: Test B pre/postemergence sugar beet; assay type: in vivo, Beta vulgaris
Procedure, shortened: as §1

[5] = test system: bamyardgrass; experiment: Test B flood test barnyardgrass; assay type: in vivo, Echinochloa crus-galli
Procedure, shortened: as §2

[6] = test system: wheat; experiment: Test B pre/postemergence wheat; assay type: in vivo, Triticum aestivum
Procedure, shortened: as §1

[7] = test system: bedstraw; experiment: Test B pre/postemergence bedstraw; assay type: in vivo, Galium aparine
Procedure, shortened: as §1

[8] = test system: pigweed; experiment: Test B pre/postemergence pigweed; assay type: in vivo, Amaranthus retroflexus
Procedure, shortened: as §1

[9] = test system: blackgrass; experiment: Test B pre/postemergence blackgrass; assay type: in vivo, Alopecurus myosuroides
Procedure, shortened: as §1

[10] = test system: smallflower flatsedge; experiment: Test B flood test smallflower flatsedge; assay type: in vivo, Cyperus difformis
Procedure, shortened: as §2

[11] = test system: soybean; experiment: Test B pre/postemergence soybean; assay type: in vivo, Glycine max
Procedure, shortened: as §1

[12] = test system: morningglory; experiment: Test B pre/postemergence morningglory; assay type: in vivo, Ipomoea hederacea
Procedure, shortened: as §1

[13] = test system: rape; experiment: Test B pre/postemergence rape; assay type: in vivo, Brassica napus
Procedure, shortened: as §1

[14] = test system: cocklebur; experiment: Test B pre/postemergence cocklebur; assay type: in vivo, Xanthium strumarium
Procedure, shortened: as §1

[15] = test system: giant foxtail; experiment: Test B pre/postemergence giant foxtail; assay type: in vivo, Setaria faberii
Procedure, shortened: as §1

[16] = test system: surinam grass; experiment: Test B pre/postemergence surinam grass; assay type: in vivo, Brachiaria decumbens
Procedure, shortened: as §1

[17] = Preemergence, Rate 31 g/ha, visual rating, scale 0 to 10 (0 no effect, 10 complete control)
[18] = Preemergence, Rate 62 g/ha, scale of 0 to 10 where 0 is no effect and 10 is complete control
[19] = Preemergence, Rate 250 g/ha, scale of 0 to 10 where 0 is no effect and 10 is complete control
[20] = Rate 62 g/ha, Postemergence, scale of 0 to 10 where 0 is no effect and 10 is complete control
[21] = Rate 125 g/ha, Postemergence, scale 0 to 10
[22] = Rate 125 g/ha, Preemergence, scale of 0 to 10 where 0 is no effect and 10 is complete control
[23] = Rate 31 g/ha, Postemergence, scale 0 to 10
[24] = Rate 31 g/ha, Pre-emergence section (flood test species), scale 0 to 10
[25] = Rate 62 g/ha, headed Pre-emergence (flood test species), scale 0 to 10 (0 no effect, 10 complete control)
[26] = Rate 125 g/ha, Pre-emergence, flood test species, scale 0 to 10 where 0 is no effect and 10 is complete control
[27] = Rate 250 g/ha, Pre-emergence, flood-test species, scale 0 to 10, 0 is no effect, 10 is complete control

## CC(=O)Cn1c(=O)on(C(=O)N(c2ccc(F)cc2)C(C)C)c1=O [Compound 217]
[1]; [17]
  Wild oats plant response rating: 0
[1]; [18]
  Wild oats plant response rating: 0
[1]; [19]
  Wild oats plant response rating: 2
[1]; [20]
  Wild oats plant response rating: 0
[1]; [21]
  Wild oats plant response rating: 0
[1]; [22]
  Wild oats plant response rating: 0
[1]; Rate 250 g/ha, Postemergence
  Plant response rating (0 to 10; 0 is no effect, 10 is complete control), Wild oats: 0
[2]; [17]
  Nutsedge plant response rating: 0
[2]; [18]
  Nutsedge plant response rating: 0
[2]; [19]
  Nutsedge plant response rating: 0
[2]; [23]
  Nutsedge plant response rating: 0
[2]; [20]
  Nutsedge plant response rating: 0
[2]; [21]
  Nutsedge plant response rating: 0
[2]; [22]
  Nutsedge plant response rating: 0
[2]; Rate 250 g/ha, Postemergence
  Plant response rating (0 to 10; 0 is no effect, 10 is complete control), Nutsedge: 0
[3]; [24]
  Ducksalad plant response rating: 0
[3]; [25]
  Ducksalad plant response rating: 0
[3]; [26]
  Ducksalad plant response rating: 0
[3]; [27]
  Ducksalad plant response rating: 0
[4]; [17]
  Sugarbeets plant response rating: 0
[4]; [18]
  Sugarbeets plant response rating: 0
[4]; [19]
  Sugarbeets plant response rating: 0
[4]; [20]
  Sugarbeets plant response rating: 0
[4]; [21]
  Sugarbeets plant response rating: 0
[4]; [22]
  Sugarbeets plant response rating: 0
[4]; Rate 250 g/ha, Postemergence
  Plant response rating (0 to 10; 0 is no effect, 10 is complete control), Sugarbeets: 0
[5]; [24]
  Barnyardgrass plant response rating: 0
[5]; [25]
  Barnyardgrass plant response rating: 0
[5]; [26]
  Barnyardgrass plant response rating: 0
[5]; [27]
  Barnyardgrass plant response rating: 0
[6]; [17]
  Wheat plant response rating: 0
[6]; [18]
  Wheat plant response rating: 0
[6]; [19]
  Wheat plant response rating: 8
[6]; [20]
  Wheat plant response rating: 0
[6]; [21]
  Wheat plant response rating: 2
[6]; [22]
  Wheat plant response rating: 3
[6]; Rate 250 g/ha, Postemergence
  Plant response rating (0 to 10; 0 is no effect, 10 is complete control), Wheat: 3
[7]; [17]
  Bedstraw plant response rating: 0
[7]; [18]
  Bedstraw plant response rating: 0
[7]; [19]
  Bedstraw plant response rating: 0
[7]; [23]
  Bedstraw plant response rating: 0
[7]; [20]
  Bedstraw plant response rating: 0
[7]; [21]
  Bedstraw plant response rating: 0
[7]; [22]
  Bedstraw plant response rating: 0
[7]; Rate 250 g/ha, Postemergence
  Plant response rating (0 to 10; 0 is no effect, 10 is complete control), Bedstraw: 0
[8]; [17]
  Redroot pigweed plant response rating: 0
[8]; [18]
  Redroot pigweed plant response rating: 0
[8]; [19]
  Redroot pigweed plant response rating: 10
[8]; [23]
  Redroot pigweed plant response rating: 0
[8]; [20]
  Redroot pigweed plant response rating: 0
[8]; [21]
  Redroot pigweed plant response rating: 0
[8]; [22]
  Redroot pigweed plant response rating: 5
[8]; Rate 250 g/ha, Postemergence
  Plant response rating (0 to 10; 0 is no effect, 10 is complete control), Redroot pigweed: 0
[9]; [17]
  Blackgrass plant response rating: 0
[9]; [18]
  Blackgrass plant response rating: 6
[9]; [19]
  Blackgrass plant response rating: 8
[9]; [23]
  Blackgrass plant response rating: 0
[9]; [20]
  Blackgrass plant response rating: 3
[9]; [21]
  Blackgrass plant response rating: 6
[9]; [22]
  Blackgrass plant response rating: 6
[9]; Rate 250 g/ha, Postemergence
  Plant response rating (0 to 10; 0 is no effect, 10 is complete control), Blackgrass: 6
[10]; [24]
  S. Flatsedge plant response rating: 0
[10]; [25]
  S. Flatsedge plant response rating: 0
[10]; [26]
  S. Flatsedge plant response rating: 0
[10]; [27]
  S. Flatsedge plant response rating: 0
[11]; [17]
  Soybean plant response rating: 0
[11]; [18]
  Soybean plant response rating: 0
[11]; [19]
  Soybean plant response rating: 0
[11]; [20]
  Soybean plant response rating: 1
[11]; [21]
  Soybean plant response rating: 1
[11]; [22]
  Soybean plant response rating: 0
[11]; Rate 250 g/ha, Postemergence
  Plant response rating (0 to 10; 0 is no effect, 10 is complete control), Soybean: 1
[12]; [17]
  Morningglory plant response rating: 0
[12]; [18]
  Morningglory plant response rating: 0
[12]; [19]
  Morningglory plant response rating: 0
[12]; [23]
  Morningglory plant response rating: 0
[12]; [20]
  Morningglory plant response rating: 0
[12]; [21]
  Morningglory plant response rating: 0
[12]; [22]
  Morningglory plant response rating: 0
[12]; Rate 250 g/ha, Postemergence
  Plant response rating (0 to 10; 0 is no effect, 10 is complete control), Morningglory: 0
[13]; [17]
  Rape plant response rating: 0
[13]; [18]
  Rape plant response rating: 0
[13]; [19]
  Rape plant response rating: 4
[13]; [23]
  Rape plant response rating: 0
[13]; [20]
  Rape plant response rating: 0
[13]; [21]
  Rape plant response rating: 0
[13]; [22]
  Rape plant response rating: 0
[13]; Rate 250 g/ha, Postemergence
  Plant response rating (0 to 10; 0 is no effect, 10 is complete control), Rape: 0
[14]; [17]
  Cocklebur plant response rating: 0
[14]; [18]
  Cocklebur plant response rating: 0
[14]; [19]
  Cocklebur plant response rating: 0
[14]; [23]
  Cocklebur plant response rating: 0
[14]; [20]
  Cocklebur plant response rating: 0
[14]; [21]
  Cocklebur plant response rating: 0
[14]; [22]
  Cocklebur plant response rating: 0
[14]; Rate 250 g/ha, Postemergence
  Plant response rating (0 to 10; 0 is no effect, 10 is complete control), Cocklebur: 0
[15]; [17]
  Giant foxtail plant response rating: 3
[15]; [18]
  Giant foxtail plant response rating: 6
[15]; [19]
  Giant foxtail plant response rating: 10
[15]; [23]
  Giant foxtail plant response rating: 0
[15]; [20]
  Giant foxtail plant response rating: 1
[15]; [21]
  Giant foxtail plant response rating: 2
[15]; [22]
  Giant foxtail plant response rating: 8
[15]; Rate 250 g/ha, Postemergence
  Plant response rating (0 to 10; 0 is no effect, 10 is complete control), Giant foxtail: 7
[16]; [17]
  B. signalgrass plant response rating: 0
[16]; [18]
  B. signalgrass plant response rating: 0
[16]; Preemergence, Rate 250 g/ha, scale 0 to 10, 0 is no effect, 10 is complete control
  B. signalgrass plant response rating: 0
[16]; [23]
  B. signalgrass plant response rating: 0
[16]; [20]
  B. signalgrass plant response rating: 0
[16]; Rate 125 g/ha, Postemergence, scale 0 (no effect) to 10 (complete control)
  B. signalgrass plant response rating: 7
[16]; [22]
  B. signalgrass plant response rating: 0
[16]; Rate 250 g/ha, Postemergence
  Plant response rating (0 to 10; 0 is no effect, 10 is complete control), B. signalgrass: 7
